In patent US11148999B2, “Nitric oxide donors” (MedChem Partners, LLC, priority 2016, dated 2021):

test system: diabetic Lep/r-db/db mice; experiment: Initial dose range wound healing study, murine diabetic wound model, PVA gel; format: in vivo; details: PVA gel with 10, 50, 100 uM test article versus PVA gel alone, applied twice a day, day 7, 1-cm^2 full-thickness wound
Protocol: A murine diabetic wound model for utilized to test the ability of the gel formulation of the invention to accelerate wound healing. Specifically, diabetic Lep/r-db/db mice were used to study the effects of the gel formulation on granulation tissue thickness, density of α-smooth muscle actin-positive myofibroblasts, wound healing kinetics, blood vessel density, cell proliferation, and tissue ingrowth.
An initial dose range study was performed to study the effects of the compounds of the invention on wound healing. Five homozygous diabetic 8-12 weeks old, Lep/r-db/db male mice (strain C57BL/KsJ-Leprdb) were anesthetized with 60 mg/kg pentobarbital and disinfected with 70% alcohol. Subsequently, a 1-cm^2 full-thickness wound was excised on the dorsa of the mice. The mice were then treated with either PVA gel containing no test article (Control), PVA gel containing test article (i.e., compound 506-3-111) at 10 uM concentration, PVA gel containing test article at 50 uM concentration, or PVA gel containing test article at 100 uM concentration. Immediately after wounding, the experimental groups had the NO releasing gel material applied to the wound twice a day and the control group had only the un-medicated gel applied to the wound. Dressing changes were performed twice daily. […]

| Structure (SMILES) | wound size |
| --- | --- |
| CCCCCCCCCCC(=O)OCO/N=[N+](\[O-])N(CC)CC [Compound 506-3-111, (Z)-3,3-diethyl-1-((undecanoyloxy)methoxy)triaz-1-ene 2-oxide] | clear dose dependent reduction in wound size |

same assay, conditions: PVA gel, 10 to 100 uM, topical twice a day, 7 days

| Structure (SMILES) | tolerability (adverse effects or toxicity) |
| --- | --- |
| CCCCCCCCCCC(=O)OCO/N=[N+](\[O-])N(CC)CC [Compound 506-3-111, (Z)-3,3-diethyl-1-((undecanoyloxy)methoxy)triaz-1-ene 2-oxide] | well tolerated with no adverse effects or toxicity even at the highest dose |

test system: not listed separately; experiment: NO release in PBS versus rat plasma (Griess reaction); format: in vitro ADME; details: 100 μM in PBS versus rat plasma, 37° C., readings at 0 minutes, 30 minutes, 3 hours; classified and ranked on NO release behavior
Protocol: The compounds were dissolved in DMSO and added to PBS and then incubated at 37° C. NO release was measured using the Griess reaction at t=0, 30 minutes, and 3 hours. NO production in this assay was an indication of the hydrolytic instability of the capping group. […] Compounds were dissolved in DMSO and added to rat plasma and then incubated at 37° C. NO release was measured using the Griess reaction at t=0, 30 minutes, and 3 hours. Differences in the amount and rate of NO release reflect the kinetics of hydrolysis of the capping groups by proteases endogenous to the rat plasma. This experiment reflected the ability of compounds to release NO in vivo. For both panels A and B, the compounds tested are labelled as: 506-3-91 is Compound 31, 506-3-159 is Compound 33, 506-3-123 is Compound 32, 506-3-149 is Compound 30, 506-3-117 is Compound 26506-3-121 is Compound 29, 506-3-153 is Compound 27, 506-3-151 is Compound 28, 506-3-145 is Compound 7, 506-3-93 is Compound 10, 506-3-113 is Compound 4, 506-3-111 is Compound 11, 506-3-133 is Compound 12, 506-3-131 is Compound 13, 506-3-81 is Compound 14, 506-3-103 is Compound 18, 506-3-157 is Compound 19, 506-3-115 is Compound 9, 506-3-143 is Compound 6, and 506-3-147 is Compound 8. For all compounds, three time points are shown (left to right for each labelled compound): 0 time point, 30 minutes time point, and 3 hours time point.
Compounds were tested for release of NO in PBS versus rat plasma using the Griess reaction. The Griess reaction works by the colorimetric measurement of nitrite levels which is the primary breakdown product of NO. To determine stability, as well as NO release behavior in a biological environment, the compounds were tested for NO release in both PBS and rat plasma at 37° C. […]
Additional experiments were carried out to test the NO release capability of 100 μM of the compounds in PBS versus Rat Plasma. In these experiments, NO release kinetics was explored by taking readings at 0 minutes, 30 minutes, and 3 hours. The results are shown in FIG. 2, panels A and B. From these studies, the compounds were classified and ranked based on their NO release behavior as shown in the Table below.

| Structure (SMILES) | Release Behavior |
| --- | --- |
| CC(C)(C)C(=O)OCO/N=[N+](\[O-])N1CCCC1CO (stereo not shown) [Compound 506-3-117, (Z)-1-(2-(hydroxymethyl)pyrrolidin-1-yl)-2-((pivaloyloxy)methoxy)diazene oxide] | steady |
| CSCO/N=[N+](\[O-])N1CCCC1CO (stereo not shown) [Compound 506-3-123, (Z)-1-(2-(hydroxymethyl)pyrrolidin-1-yl)-2-((methylthio)methoxy)diazene oxide] | slow/low release |
| CCCC(=O)OCO/N=[N+](\[O-])N1CCCC1CO (stereo not shown) [Compound 506-3-153, (Z)-2-((butyryloxy)methoxy)-1-(2-(hydroxymethyl)pyrrolidin-1-yl)diazene oxide] | steady/low |
| CCC(CC)C(=O)OCO/N=[N+](\[O-])N(CC)CC [Compound 506-3-115, (Z)-3,3-diethyl-1-(((2-ethylbutanoyl)oxy)methoxy)triaz-1-ene 2-oxide] | slow onset |
| CCCC(=O)OCO/N=[N+](\[O-])N(CC)CC [Compound 506-3-143, (Z)-1-((butyryloxy)methoxy)-3,3-diethyltriaz-1-ene 2-oxide] | intermediate |
| CCN(CC)/[N+]([O-])=N/OCOC(=O)c1ccccc1 [Compound 506-3-145, (Z)-1-((benzoyloxy)methoxy)-3,3-diethyltriaz-1-ene 2-oxide] | steady |
| C[S+]([O-])CO/N=[N+](\[O-])N1CCCC1CO (stereo not shown) [Compound 506-3-159, (Z)-1-(2-(hydroxymethyl)pyrrolidin-1-yl)-2-((methylsulfinyl)methoxy)diazene oxide] | slow/low release |
| CCN(CC)/[N+]([O-])=N/OCOC(=O)[C@@H](NC(=O)OC(C)(C)C)C(C)C [Compound 506-3-113, (S,Z)-3-ethyl-10-isopropyl-14,14-dimethyl-9,12-dioxo-6,8,13-trioxa-3,4,5,11-tetraazapentadec-4-ene 4-oxide] | slow onset |
| CCN(CC)/[N+]([O-])=N/OCSC [Compound 506-3-103, (Z)-3,3-diethyl-1-((methylthio)methoxy)triaz-1-ene 2-oxide] | slow/low release |
| O=C1c2ccccc2C(=O)N1CO/N=[N+](\[O-])N1CCCC1CO (stereo not shown) [Compound 506-3-91, (Z)-2-((1,3-dioxoisoindolin-2-yl)methoxy)-1-(2-(hydroxymethyl)pyrrolidin-1-yl)diazene oxide] | unstable |
| CCN(CC)/[N+]([O-])=N/OCN1C(=O)c2ccccc2C1=O [Compound 506-3-81, (Z)-1-((1,3-dioxoisoindolin-2-yl)methoxy)-3,3-diethyltriaz-1-ene 2-oxide] | unstable |
| CC(C)OC(=O)OCO/N=[N+](\[O-])N1CCCC1CO (stereo not shown) [Compound 506-3-121, (Z)-1-(2-(hydroxymethyl)pyrrolidin-1-yl)-2-(((isopropoxycarbonyl)oxy)methoxy)diazene oxide] | slow/low release |
| CCCCCCCCCCC(=O)OCO/N=[N+](\[O-])N(CC)CC [Compound 506-3-111, (Z)-3,3-diethyl-1-((undecanoyloxy)methoxy)triaz-1-ene 2-oxide] | quick/long release |
| CCN(CC)/[N+]([O-])=N/OC(C)OC(=O)OC(C)(C)C (stereo not shown) [Compound 506-3-133, (Z)-3-ethyl-7,11,11-trimethyl-9-oxo-6,8,10-trioxa-3,4,5-triazadodec-4-ene 4-oxide] | unstable |
| CCN(CC)/[N+]([O-])=N/OC(C)OC(=O)OC(C)C (stereo not shown) [Compound 506-3-131, (Z)-3-ethyl-7,11-dimethyl-9-oxo-6,8,10-trioxa-3,4,5-triazadodec-4-ene 4-oxide] | steady/low |
| CCN(CC)/[N+]([O-])=N/OCOC(=O)C(C)(C)NC(=O)OC(C)(C)C [Compound 506-3-93, (Z)-3-ethyl-10,10,14,14-tetramethyl-9,12-dioxo-6,8,13-trioxa-3,4,5,11-tetraazapentadec-4-ene 4-oxide] | slow/low release |
| CCN(CC)/[N+]([O-])=N/OC[S+](C)[O-] (stereo not shown) [Compound 506-3-157, (Z)-3,3-diethyl-1-((methylsulfinyl)methoxy)triaz-1-ene 2-oxide] | slow/low release |
| CCC(CC)C(=O)OCO/N=[N+](\[O-])N1CCCC1CO (stereo not shown) [Compound 506-3-149, (Z)-2-(((2-ethylbutanoyl)oxy)methoxy)-1-(2-(hydroxymethyl)pyrrolidin-1-yl)diazene oxide] | slow onset |
| O=C(OCO/N=[N+](\[O-])N1CCCC1CO)c1ccccc1 (stereo not shown) [Compound 506-3-151, (Z)-2-((benzoyloxy)methoxy)-1-(2-(hydroxymethyl)pyrrolidin-1-yl)diazene oxide] | slow onset |

test system: not listed separately; experiment: Stability of the pure compound on storage; format: physicochemical; details: not given

| Structure (SMILES) | stability of the pure compound |
| --- | --- |
| CCCCCCCCCCC(=O)OCO/N=[N+](\[O-])N(CC)CC [Compound 506-3-111, (Z)-3,3-diethyl-1-((undecanoyloxy)methoxy)triaz-1-ene 2-oxide] | stable for over one year |
